In patent US20120189579A1 (priority 2009, published 2012):

Tests used:
[1] = tested on: HCV replicon Luc Neo ET in Huh-7 cells; experiment: Replicon assay (Luc Neo ET replicon); assay type: cell-based; details: Hepatitis C virus, 72 hours with compound, firefly luciferase reporter, read-out: EC50—Replicon LucneoET
Description: (§1) Human Hepatoma Huh-7 cell line was maintained in DMEM/HAMF-12 supplemented with 10% SVF, 4 mM glutamine, […] Na pyruvate, 1% penistreptomycine. HCV replicon containing Huh-7 cell lines Huh-9.13 and Luc Neo ET (Reblikon) were maintained in DMEM supplemented with 10% SVF, 2 mM glutamine, and 1×NEAA, 100 U/ml penicillin, and 100 μg/ml streptomycine. Replicon cells were maintained in medium supplemented with 1 mg/ml G418 for replicon Huh-9.13 and 0.5 mg/ml for Luc Neo et replicon unless indicated otherwise. Huh-7 and HCV replicon cell lines were maintained at 37° C. and 5% CO2 in a humidified atmosphere. Cells were dissociated at sub confluence with trypsin EDTA 1×.
Replicon Luc Neo ET is a bicistronic expression constructs (Lohmann et al, 1999, Science 285, 110-113). In brief, the structural genes of the HCV genome were replaced by heterologous sequences; the gene encoding the neomycin phosphotransferase (NPT) and the internal ribosome entry site (IRES) of the encephalomyocarditis virus (EMCV). The bicistronic construct is therefore composed of the following elements: HCV-IRES nucleotides 1-389, the NPT gene, the EMCV-IRES directing translation of downstream HCV sequences from NS2 or NS3 up to the authentic 3′ end of the genome. HCV Polyprotein harbours the cell culture adaptive mutations E1202G, T1280I, K1846T. G418-resistance is only possible with cells containing high amounts of replicon.
Cells were dissociated the day before addition of compounds and seeded in 96 well-plates at a final concentration of 77 777.77 cells·ml^−1·well^−2 in 90 μl final volume of culture medium per well and were maintained at 37° C. and 5% CO2 in a humidified atmosphere for 24 hours. 10 μl of compounds to be tested were added 24 hours after seeding. Final concentration of DMSO was 1%. Cells were incubated in the presence of compounds for 72 hours after which expression of firefly luciferase reporter gene was quantified. Briefly, culture medium was removed and cells were lysed by addition of 100 μl of lysis buffer containing 125 mM Tris Phosphate ph 7.8, 10 mM EDTA, 5 mM DTT, 50% glycerol and 5% Triton. Plates were vortexed 10 min at 1300 rpm. Cell lysat was transferred in OpaqueWhite Assay 96 well Flat Bottom plates. 100 μl of luciferin solution 1× were added to each well. Luciferin solution contained 40 mM Tris Phosphate ph 7.8, 0.2 mM EDTA, 67 mM DTT, 2.14 mM MgCl2, 5.4 mM MgSO4, 4.7×10^−4 M luciferin, 5.3×10^−4 M ATP and 2.7×10^−4 M Acetyl co enzyme A. Luminescence was immediately measured with Berthold Microlumat Plus LB 96V luminometer with an integration of 0.5 sec Inhibition was calculated using the formula:
% inhibition=1−[(RLUsample−RLUbackground)/(RLUsignal−RLUbackground)]

[2] = molecular target: T1, HCV NS5BΔ21/Gal4-DBD fusion protein (Hepatitis C virus genotype 1b, UniProt Q9WMX2); experiment: 3D-SCREEN assay (NS5B reporter gene assay in Huh-7 cells); assay type: cell-based, HCV genotype 1b
T1 construct: The protein was expressed with a 21 amino acid C-terminal deletion to remove transmembrane domain; expressed in transfected cells; host or cells: Huh-7 (transient transfection)
Description: as §1
cDNA encoding HCV NS5B genotype 1b, was cloned in frame with Gal4-DNA Binding Domain. The protein was expressed with a 21 amino acid C-terminal deletion to remove transmembrane domain. Expression of NS5BΔ21/Gal4 DBD fusion protein was under control of SV40 early promoter. 3D-Sensor peptide was cloned in frame with VP16 activation domain. Expression of 3D-Sensor/VP16 AD fusion protein was under control of CMV promoter. Expression of the firefly luciferase reporter gene was inducible by the [Target protein/conformation sensitive peptide/VP16AD] complex.
It is a single-target, cell based assay. Briefly, expression of a reporter gene depends on the interaction of a short peptide, thereafter named 3D-Sensor, and native conformation of the target protein. Whenever the conformation of the target protein is modified, interaction between 3D-sensor and target protein is disrupted and reporter gene is not expressed anymore. Conformation modifiers are identified by loss of expression of reporter gene. NS5B 3D-Screen platform was generated in Huh-7 cell lines by transient transfection of three expression vectors encoding respectively • (i) HCV NS5BΔ21/Gal4-DBD fusion protein • (ii) the 3D-sensor peptide 14/VP16 fusion protein • (iii) the firefly luciferase reporter gene
Huh-7 cells were dissociated the day before transfection and seeded in T175 flasks at a density of 10^7 cells in 30 ml culture medium. Equimolar ratios of vectors were transfected in cell according to optimized jetPEI transfection protocol (PolyPlus Transfection, Illkirch, France) and 10 μg total DNA/10^6 cells. Transfection was performed for 2 hours at 37° C. and 5% CO2 in a humidified atmosphere. After two hours cells were dissociated and seeded in 96 wells plates at a density of 25,000 cells per well and 90 μl culture medium. 10 μl of compounds to be tested were added 2 hours after seeding. Final concentration of DMSO was 1%. Cells were incubated in the presence of compounds for 24 hours after which expression of firefly luciferase reporter gene was quantified. Briefly, culture medium was removed and cells were lysed by addition of 100 μl of lysis buffer containing 125 mM Tris Phosphate ph 7.8, 10 mM EDTA, 5 mM DTT, 50% glycerol and 5% Triton. Plates were vortexed 10 min at 1300 rpm. Cell lysat was transferred in OpaqueWhite Assay 96 well Flat Bottom plates. 100 μl of luciferin solution 1× were added to each well. Luciferin solution contained 40 mM Tris Phosphate ph 7.8, 0.2 mM EDTA, 67 mM DTT, 2.14 mM MgCl2, 5.4 mM MgSO4, 4.7×10^−4 M luciferin, 5.3×10^−4 M ATP and 2.7×10^−4 M Acetyl co enzyme A. Luminescence was immediately measured with Berthold Microlumat Plus LB 96V luminometer with an integration of 0.5 sec. Inhibition was calculated using the formula: % inhibition=(1−(read/average max))*100. Average max=signal in absence of compound

[3] = molecular target: T2, purified HCV NS5B with a deletion of the 21 C-terminal amino acids (Hepatitis C virus genotype 1b, UniProt Q9WMX2); experiment: HCV NS5B RdRp enzyme assay; assay type: biochemical; details: read-out: inhibition (RdRp enzyme assay)
T2 construct: purified HCV NS5B with a deletion of the 21 C-terminal amino acids
Description: The assay was performed in a total volume of 20 μl containing 20 mM Tris pH 7.5, 1 mM DTT, 17 U RNasin, 50 mM NaCl, 10% DMSO, 5 mM MgCl2, 0.5 mM each of the 3 NTPs (ATP, CTP, GTP), 86 nM RNA template (341 nt from the 3′ end of HCV minus strand RNA), 50 nM of purified HCV NS5B with a deletion of the 21 C-terminal amino acids and 2 μCi [^3H]UTP (46 Ci·mmol^−1). The reaction mixture was incubated for 2 h at 25-30° C. and the radio labeled products were precipitated by the addition of 10% TCA. The radioactivity incorporated was quantified by counting in a Wallac scintillation counter. Increasing concentrations of tested compounds were added to the complete RdRp reaction mixture. After a two hour incubation period at 25-30° C., the amount of labeled product was determined as above. Two types of control reactions were done: a negative control corresponding to the complete mixture without enzyme and a positive control with enzyme but without compounds. In each experiment, test and control samples are in duplicate.
The level of activity with each compound concentration was expressed with the formulae: […]
The IC50 value was calculated as the compound concentration reducing polymerase activity by 50%.

Row | Structure (SMILES) | melting point | EC50 [1] | EC50 [2] | inhibition at 10 µM [3]
1 | CC(C)c1ccc(C(=O)C2=C(O)C(=O)N(c3ncc(S(=O)(=O)c4ccc([N+](=O)[O-])cc4)s3)C2c2ccc(OC(F)(F)F)cc2)cc1 (stereo not drawn) [Example 125, 3-hydroxy-4-(4-isopropyl-benzoyl)-1-[5-(4-nitro-benzenesulfonyl)-thiazol-2-yl]-5-(4-trifluoromethoxy-phenyl)-1,5-dihydro-pyrrol-2-one] | 276 to 278 °C | < 10 µM | < 10 µM | 
2 | Cc1nnc(N2C(=O)C(O)=C(C(=O)c3ccc(C(C)C)cc3)C2c2ccc(OC(F)(F)F)cc2)s1 (stereo not drawn) [Example 127, 3-hydroxy-4-(4-isopropyl-benzoyl)-1-(5-methyl-[1,3,4]thiadiazol-2-yl)-5-(4-trifluoromethoxy-phenyl)-1,5-dihydro-pyrrol-2-one] | 260 °C | < 1 µM | < 1 µM | 
3 | Cc1ccc(C(=O)C2=C(O)C(=O)N(c3ncc(S(=O)(=O)c4ccc([N+](=O)[O-])cc4)s3)C2c2ccc(C(C)(C)C)cc2)cc1 (stereo not drawn) [Example 28] |  | 4 µM | 2 µM | 85%
